Test results from paper doi:10.1101/471615v1 (biorxiv, 2018).

Columns and labels:
Experiment in all cases: biochemical
MEK5 = target: T1, MEK5 (Homo sapiens, UniProt Q13163)
T1 sequence (Q13163 1-448): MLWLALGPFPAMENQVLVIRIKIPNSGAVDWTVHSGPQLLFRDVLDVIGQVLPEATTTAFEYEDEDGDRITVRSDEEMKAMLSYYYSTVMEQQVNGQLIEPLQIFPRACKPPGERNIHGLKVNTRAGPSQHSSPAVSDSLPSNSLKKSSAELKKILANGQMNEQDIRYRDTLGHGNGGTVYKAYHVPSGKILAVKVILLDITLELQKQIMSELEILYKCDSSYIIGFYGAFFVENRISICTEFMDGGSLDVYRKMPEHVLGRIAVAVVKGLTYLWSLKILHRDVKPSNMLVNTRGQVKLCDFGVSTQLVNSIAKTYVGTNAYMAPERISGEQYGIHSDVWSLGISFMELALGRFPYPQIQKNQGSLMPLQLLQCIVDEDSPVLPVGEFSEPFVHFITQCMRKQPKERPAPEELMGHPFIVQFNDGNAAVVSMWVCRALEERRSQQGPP

EphA1 = target: T2, EphA1 (Homo sapiens, UniProt P21709)
T2 sequence (P21709 1-976): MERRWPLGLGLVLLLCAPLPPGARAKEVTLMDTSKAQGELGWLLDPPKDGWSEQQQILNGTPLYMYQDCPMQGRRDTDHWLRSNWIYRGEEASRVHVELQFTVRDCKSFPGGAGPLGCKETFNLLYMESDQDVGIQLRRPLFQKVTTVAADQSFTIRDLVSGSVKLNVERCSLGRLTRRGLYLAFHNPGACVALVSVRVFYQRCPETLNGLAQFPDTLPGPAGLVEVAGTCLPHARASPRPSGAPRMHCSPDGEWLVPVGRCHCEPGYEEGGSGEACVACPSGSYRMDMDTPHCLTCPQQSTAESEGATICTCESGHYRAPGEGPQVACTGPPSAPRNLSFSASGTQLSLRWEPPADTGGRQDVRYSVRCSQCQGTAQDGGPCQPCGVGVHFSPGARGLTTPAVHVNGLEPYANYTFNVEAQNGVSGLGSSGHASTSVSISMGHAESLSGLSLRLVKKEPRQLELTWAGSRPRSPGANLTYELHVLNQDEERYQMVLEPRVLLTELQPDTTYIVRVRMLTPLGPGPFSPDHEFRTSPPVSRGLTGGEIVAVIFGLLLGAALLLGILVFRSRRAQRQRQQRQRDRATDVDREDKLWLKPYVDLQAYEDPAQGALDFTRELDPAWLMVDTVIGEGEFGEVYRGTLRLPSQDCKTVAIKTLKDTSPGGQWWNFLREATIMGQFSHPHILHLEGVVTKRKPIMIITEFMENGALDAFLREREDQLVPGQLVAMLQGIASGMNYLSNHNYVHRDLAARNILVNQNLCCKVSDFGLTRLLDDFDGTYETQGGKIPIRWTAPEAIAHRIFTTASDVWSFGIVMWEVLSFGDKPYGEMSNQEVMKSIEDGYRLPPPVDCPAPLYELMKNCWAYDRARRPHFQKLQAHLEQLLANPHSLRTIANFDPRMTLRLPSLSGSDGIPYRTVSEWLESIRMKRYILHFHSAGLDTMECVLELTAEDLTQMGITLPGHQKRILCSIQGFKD

[1] = target: AarF domain containing kinase 3, ADCK3 (Homo sapiens, UniProt Q8NI60)
ABL1-Phos. = ABL1-Phos. (Homo sapiens, UniProt P00519)
ACVR1 = target: T3, ACVR1 (Homo sapiens, UniProt Q04771)
T3 sequence (Q04771 1-509): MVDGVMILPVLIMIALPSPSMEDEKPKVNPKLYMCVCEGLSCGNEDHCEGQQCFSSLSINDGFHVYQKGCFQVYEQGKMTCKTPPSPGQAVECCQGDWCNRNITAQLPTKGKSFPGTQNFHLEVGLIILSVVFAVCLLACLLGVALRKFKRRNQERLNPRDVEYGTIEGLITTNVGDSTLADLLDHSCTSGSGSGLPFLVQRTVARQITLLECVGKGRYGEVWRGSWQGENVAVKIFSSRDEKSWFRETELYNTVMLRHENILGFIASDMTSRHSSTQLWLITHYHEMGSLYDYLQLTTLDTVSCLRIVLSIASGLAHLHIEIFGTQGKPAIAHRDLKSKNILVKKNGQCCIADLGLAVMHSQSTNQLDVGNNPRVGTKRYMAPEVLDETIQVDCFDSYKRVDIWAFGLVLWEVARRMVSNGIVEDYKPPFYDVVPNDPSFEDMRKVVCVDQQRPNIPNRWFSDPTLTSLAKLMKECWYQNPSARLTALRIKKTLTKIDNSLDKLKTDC

TXK = target: T4, TXK (Homo sapiens, UniProt P42681)
T4 sequence (P42681 1-527): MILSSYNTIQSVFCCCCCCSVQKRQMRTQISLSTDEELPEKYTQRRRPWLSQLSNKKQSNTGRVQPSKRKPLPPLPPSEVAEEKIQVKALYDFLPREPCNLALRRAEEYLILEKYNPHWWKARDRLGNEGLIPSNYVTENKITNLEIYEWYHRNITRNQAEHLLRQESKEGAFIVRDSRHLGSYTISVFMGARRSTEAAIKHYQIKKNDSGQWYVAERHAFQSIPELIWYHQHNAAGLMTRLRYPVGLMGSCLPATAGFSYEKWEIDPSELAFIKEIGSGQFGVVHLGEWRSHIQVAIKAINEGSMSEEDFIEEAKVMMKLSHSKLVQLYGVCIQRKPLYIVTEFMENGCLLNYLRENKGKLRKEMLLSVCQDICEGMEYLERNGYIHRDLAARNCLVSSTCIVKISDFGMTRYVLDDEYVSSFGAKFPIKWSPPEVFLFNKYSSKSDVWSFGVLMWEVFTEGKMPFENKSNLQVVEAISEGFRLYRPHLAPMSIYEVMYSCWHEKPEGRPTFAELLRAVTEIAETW

Measured: Kd

Chain of AarF domain containing kinase 3, ADCK3 (Q8NI60 163-647): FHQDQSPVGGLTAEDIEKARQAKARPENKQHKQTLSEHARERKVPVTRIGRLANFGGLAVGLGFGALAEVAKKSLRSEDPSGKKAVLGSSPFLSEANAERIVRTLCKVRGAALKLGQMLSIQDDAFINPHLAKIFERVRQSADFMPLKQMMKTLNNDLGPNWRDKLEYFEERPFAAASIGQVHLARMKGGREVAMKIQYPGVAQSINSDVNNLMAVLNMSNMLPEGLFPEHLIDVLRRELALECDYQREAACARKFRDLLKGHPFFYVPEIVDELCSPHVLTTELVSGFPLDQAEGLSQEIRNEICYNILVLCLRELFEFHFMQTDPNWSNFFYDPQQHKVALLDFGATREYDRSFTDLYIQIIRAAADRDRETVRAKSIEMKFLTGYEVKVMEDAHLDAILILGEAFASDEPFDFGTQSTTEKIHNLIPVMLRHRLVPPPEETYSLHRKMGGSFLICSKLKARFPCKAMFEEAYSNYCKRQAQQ
Chain of ABL1-Phos. (P00519 whole entry): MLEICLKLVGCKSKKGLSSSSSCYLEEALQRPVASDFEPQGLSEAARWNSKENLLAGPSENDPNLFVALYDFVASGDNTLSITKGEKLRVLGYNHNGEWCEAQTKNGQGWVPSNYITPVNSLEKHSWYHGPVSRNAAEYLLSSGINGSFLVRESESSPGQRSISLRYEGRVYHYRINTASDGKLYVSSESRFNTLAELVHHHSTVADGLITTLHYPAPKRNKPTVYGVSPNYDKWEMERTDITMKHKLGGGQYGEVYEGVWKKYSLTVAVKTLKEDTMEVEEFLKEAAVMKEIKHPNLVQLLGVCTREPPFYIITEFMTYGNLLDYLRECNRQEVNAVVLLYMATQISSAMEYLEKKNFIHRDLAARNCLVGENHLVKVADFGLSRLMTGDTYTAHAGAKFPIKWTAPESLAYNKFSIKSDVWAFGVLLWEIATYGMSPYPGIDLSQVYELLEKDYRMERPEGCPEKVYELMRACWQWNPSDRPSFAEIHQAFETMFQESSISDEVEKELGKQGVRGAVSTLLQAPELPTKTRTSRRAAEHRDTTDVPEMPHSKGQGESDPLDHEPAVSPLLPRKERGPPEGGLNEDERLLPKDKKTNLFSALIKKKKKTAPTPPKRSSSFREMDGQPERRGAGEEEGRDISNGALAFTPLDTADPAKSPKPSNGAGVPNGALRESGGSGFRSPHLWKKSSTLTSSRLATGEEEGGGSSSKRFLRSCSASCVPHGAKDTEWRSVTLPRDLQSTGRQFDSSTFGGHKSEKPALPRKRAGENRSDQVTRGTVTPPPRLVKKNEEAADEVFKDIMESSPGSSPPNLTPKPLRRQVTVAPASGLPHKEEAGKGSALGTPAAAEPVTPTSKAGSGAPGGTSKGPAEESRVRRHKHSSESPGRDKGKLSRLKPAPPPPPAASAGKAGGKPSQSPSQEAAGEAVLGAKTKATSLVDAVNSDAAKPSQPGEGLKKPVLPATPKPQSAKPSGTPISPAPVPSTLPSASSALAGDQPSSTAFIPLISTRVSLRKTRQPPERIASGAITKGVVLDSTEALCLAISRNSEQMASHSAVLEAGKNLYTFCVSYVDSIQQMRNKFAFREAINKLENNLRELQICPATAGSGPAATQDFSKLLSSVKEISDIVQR

COc1cc(N(C)c2ccnc3ccc(C(F)(F)F)cc23)cc(OC)c1OC [compound 21, negative control (21)]
> 10 µM: all assays above
